Common to all, as to format: cell-based
In assay [1] the target is T1, serotonin transporter (SERT) (Homo sapiens, UniProt P31645).
T1 construct: expressed in transfected cells; host or cells: HEK-293
Kind of assay: Serotonin reuptake inhibition, [3H]-5-HT, HEK-293 cells transfected with 5-HT transporter cDNA. Particulars: for IC50: concentration at which Ratio % is 50%, 6 concentrations 1 nM to 1 μM, read-out: Triple reuptake inhibition (IC50, μM) SERT. Here is the method: (§1) In order to evaluate the reuptake inhibitory effect of the compounds of the Examples according to the present invention on serotonin, norepinephrine and dopamine, the experiments below were performed, and the results are shown in Table 17.
(§2) To evaluate the reuptake inhibition effect on dopamine, the dopamine transporter cDNA was transfected using the HEK-293 cell line, and then sub-seeded in a 24 well plate the next day. After removing the medium, each compound of the Examples or Comparative Examples diluted to 1 μM in uptake buffer was added to a concentration of 200 μl/well and cultured at 37° C. for 15 minutes. 100 μl of uptake buffer containing 20-30 nM [3H]-DA was added and cultured at 37° C. for 5 minutes. The reaction solution was quickly removed and washed three times with 1 ml ice-cold uptake buffer. After dissolving the resultant in 1% SDS (0.5 ml), the degree of binding of radioisotope-labeled dopamine to the transporter was measured.
(§3) For norepinephrine (NE) and serotonin (5-HT), the degree of binding of radioisotope-labeled norepinephrine or serotonin to the transporter was measured in the same manner as above, except that cells transfected with NE or 5-HT transporter cDNA were used and [3H]—NE or [3H]-5-HT was used as a substrate.
(§4) In addition, when evaluating the reuptake inhibitory effect on dopamine, norepinephrine, and serotonin, the same method was performed without treating each compound of the Examples or Comparative Examples as a control, the degree of binding of radioisotope-labeled dopamine, norepinephrine, and serotonin to the transporter was measured, and by using this as a reference (100%), the triple reuptake inhibitory effect was evaluated as a relative ratio (Ratio %). That is, in the control group, the binding of dopamine, norepinephrine, and serotonin to transporters is not inhibited, but when each compound of the Examples is treated and thus the binding is inhibited, the Ratio % value decreases.
(§5) Meanwhile, the Ratio % values were compared, and in the case of the compounds of Examples 6, 10, 13, 14, 17, 20, 21, 22, 30, 31, 32, 34, 36, 38, 39, 40, 54, 55, 56, 57, 58 and 73 with excellent reuptake inhibitory effects on dopamine, norepinephrine and serotonin, the concentration at which the Ratio % is 50% was calculated using a total of 6 concentrations (1 nM, 5 nM, 10 nM, 50 nM, 100 nM, and 1 μM) and expressed as IC50.

Assay [2] has as its target T2, norepinephrine transporter (NET) (Homo sapiens, UniProt P23975).
T2 construct: expressed in transfected cells; host or cells: HEK-293
Kind of assay: Norepinephrine reuptake inhibition, [3H]-NE, HEK-293 cells transfected with NE transporter cDNA. Particulars: for Triple reuptake inhibition (Ratio %) NET: compound 1 μM, [3H]-NE, relative to control without compound = 100%, lower value = more inhibition; for IC50: concentration at which Ratio % is 50%, 6 concentrations 1 nM to 1 μM, read-out: Triple reuptake inhibition (IC50, μM) NET. Here is the method: as §1, §2, §3, §4, §5

Assay [3] deals with T3, dopamine transporter (DAT) (Homo sapiens, UniProt Q01959).
T3 construct: expressed in transfected cells; host or cells: HEK-293
T3 sequence (Q01959 whole entry, species assumed): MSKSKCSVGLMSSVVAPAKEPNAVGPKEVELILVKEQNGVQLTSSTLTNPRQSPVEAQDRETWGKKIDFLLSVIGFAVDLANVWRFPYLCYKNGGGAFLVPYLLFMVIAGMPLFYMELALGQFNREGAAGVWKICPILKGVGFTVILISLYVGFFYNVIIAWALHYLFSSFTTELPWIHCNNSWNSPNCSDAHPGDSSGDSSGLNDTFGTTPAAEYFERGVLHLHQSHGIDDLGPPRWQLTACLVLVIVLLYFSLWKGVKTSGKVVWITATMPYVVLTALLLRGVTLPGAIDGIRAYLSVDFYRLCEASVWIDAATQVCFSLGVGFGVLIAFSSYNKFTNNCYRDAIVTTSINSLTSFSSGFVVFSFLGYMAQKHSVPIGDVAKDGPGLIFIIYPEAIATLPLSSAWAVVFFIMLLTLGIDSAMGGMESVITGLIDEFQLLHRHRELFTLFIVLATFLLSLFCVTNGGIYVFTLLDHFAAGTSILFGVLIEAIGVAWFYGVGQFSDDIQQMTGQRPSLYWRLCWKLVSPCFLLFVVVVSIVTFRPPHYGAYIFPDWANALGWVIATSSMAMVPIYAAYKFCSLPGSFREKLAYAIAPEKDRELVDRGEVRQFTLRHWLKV
Kind of assay: Dopamine reuptake inhibition, [3H]-DA, HEK-293 cells transfected with dopamine transporter cDNA. Particulars: for Triple reuptake inhibition (Ratio %) DAT: compound 1 μM, 20-30 nM [3H]-DA, relative to control without compound = 100%, lower value = more inhibition; for IC50: concentration at which Ratio % is 50%, 6 concentrations 1 nM to 1 μM, read-out: Triple reuptake inhibition (IC50, μM) DAT. Here is the method:
as §1, §2, §4, §5

Where [4] appears, read: compound 1 μM, [3H]-5-HT, relative to control without compound = 100%, lower value = more inhibition.

Read-outs that look alike come from different tables or passages of the source.

T2 sequence (P23975 whole entry, species assumed): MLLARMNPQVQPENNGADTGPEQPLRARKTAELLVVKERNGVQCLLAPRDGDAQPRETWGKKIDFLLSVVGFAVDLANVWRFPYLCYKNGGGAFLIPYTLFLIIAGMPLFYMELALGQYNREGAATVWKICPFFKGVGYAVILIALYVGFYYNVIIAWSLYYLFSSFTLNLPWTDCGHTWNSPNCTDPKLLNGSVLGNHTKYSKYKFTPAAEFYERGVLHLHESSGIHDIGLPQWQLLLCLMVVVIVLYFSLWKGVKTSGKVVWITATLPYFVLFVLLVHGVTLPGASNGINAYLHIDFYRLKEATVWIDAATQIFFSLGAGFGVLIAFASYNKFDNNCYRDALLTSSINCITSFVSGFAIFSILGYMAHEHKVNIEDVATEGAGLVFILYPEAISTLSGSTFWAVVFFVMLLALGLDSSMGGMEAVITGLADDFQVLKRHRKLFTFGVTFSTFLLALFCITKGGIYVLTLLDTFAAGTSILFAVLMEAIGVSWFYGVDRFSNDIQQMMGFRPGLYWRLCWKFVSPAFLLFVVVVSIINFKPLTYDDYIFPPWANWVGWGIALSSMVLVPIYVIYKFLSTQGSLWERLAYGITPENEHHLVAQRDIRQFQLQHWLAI
T1 sequence (P31645 whole entry, species assumed): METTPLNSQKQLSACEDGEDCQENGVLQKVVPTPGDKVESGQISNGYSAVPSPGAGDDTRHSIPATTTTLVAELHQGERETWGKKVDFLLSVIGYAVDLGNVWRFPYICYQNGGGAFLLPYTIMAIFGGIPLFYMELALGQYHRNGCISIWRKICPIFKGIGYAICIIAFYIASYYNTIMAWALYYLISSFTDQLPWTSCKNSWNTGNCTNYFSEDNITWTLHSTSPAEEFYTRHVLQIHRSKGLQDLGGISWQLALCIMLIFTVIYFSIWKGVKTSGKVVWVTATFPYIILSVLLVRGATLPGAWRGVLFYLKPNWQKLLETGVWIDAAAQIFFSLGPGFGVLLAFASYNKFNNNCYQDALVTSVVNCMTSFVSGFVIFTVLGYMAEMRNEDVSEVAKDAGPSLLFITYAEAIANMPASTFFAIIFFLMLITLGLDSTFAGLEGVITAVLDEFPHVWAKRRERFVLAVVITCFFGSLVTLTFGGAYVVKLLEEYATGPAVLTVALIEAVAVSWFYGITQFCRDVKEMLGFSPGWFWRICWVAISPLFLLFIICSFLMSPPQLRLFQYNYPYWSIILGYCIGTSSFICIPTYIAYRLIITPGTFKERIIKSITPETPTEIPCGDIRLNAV

Take `O=S(=O)(NCCN1CCN(c2ccc(Cl)cc2)CC1)c1ccc2ccccc2n1` [Example 53, N-(2-(4-(4-chlorophenyl)piperazinyl)ethyl)quinolin-2-sulfonamide]: in assay [1] (setting [4]), the “Triple reuptake inhibition (Ratio %) SERT” value was found to be 47.19%. Further, the “Triple reuptake inhibition (Ratio %) NET” value in assay [2] is listed as 64.45%. The “Triple reuptake inhibition (Ratio %) DAT” value in assay [3] was found to be 68.53%.
For `CCCCOc1ccc(S(=O)(=O)NCCN2CCC(c3c[nH]c4ccc(OC)cc34)CC2)cc1` [Example 8, 4-butoxy-N-(2-(4-(5-methoxy-1H-indol-3-yl)piperidin-1-yl)ethyl)benzenesulfonamide], in that order: 98.57%, 79.30% and 90.67%.
For the compound `O=S(=O)(NCCN1CCC(Cc2ccccc2)CC1)c1ccc(Oc2ccccc2)cc1` [Example 3, N-(2-(4-benzylpiperidin-1-yl)ethyl)-4-phenoxybenzenesulfonamide], in assay [1] (setting [4]), the “Triple reuptake inhibition (Ratio %) SERT” value turned out to be 62.10%. Further, the “Triple reuptake inhibition (Ratio %) NET” value in assay [2] is 56.36%. In addition, the “Triple reuptake inhibition (Ratio %) DAT” value in assay [3] was found to be 50.09%.
On the same counts, the results for `O=S(=O)(NCCCN1CCC(Cc2ccccc2)CC1)c1ccc(-c2ccc(Cl)cc2)cc1` [Example 59, N-(3-(4-benzylpiperidin-1-yl)propyl)-4′-chloro-[1,1′-biphenyl]-4-sulfonamide] are 29.78%, 44.79% and 15.16%.
On the same counts, the results for `CCCCOc1ccc(S(=O)(=O)NCCCN2CCN(CC3CCOCC3)CC2)cc1` [Example 25, 4-butoxy-N-(3-(4-((tetrahydro-2H-pyran-4-yl)methyl)piperazin-1-yl)propyl)benzenesulfonamide] are 84.44%, 102.91% and 111.51%.
Regarding `O=S(=O)(NCCCN1CCN(c2ccc(Cl)cc2)CC1)c1cccc2ccccc12` [Example 71, N-(3-(4-(4-chlorophenyl)piperazin-1-yl)propyl)naphthalen-1-sulfonamide], the “Triple reuptake inhibition (Ratio %) SERT” value in assay [1] (setting [4]) is recorded as 47.19%. The “Triple reuptake inhibition (Ratio %) NET” value in assay [2] was determined as 64.45%. Moreover, the “Triple reuptake inhibition (Ratio %) DAT” value in assay [3] is recorded as 68.53%.
For the compound `O=S(=O)(NCCCN1CCC(Cc2ccccc2)CC1)c1ccc(-c2ccc(F)cc2)cc1` [Example 58, N-(3-(4-benzylpiperidin-1-yl)propyl)-4′-fluoro-[1,1′-biphenyl]-4-sulfonamide], the “Triple reuptake inhibition (Ratio %) SERT” value in assay [1] (setting [4]) is 50.76%. The IC50 in assay [1] was 1.84 µM. In assay [2], the “Triple reuptake inhibition (Ratio %) NET” value was 44.79% and the IC50 was 0.429 µM. Also, in assay [3], the “Triple reuptake inhibition (Ratio %) DAT” value was determined as 55.51% and the IC50 was determined as 0.647 µM.
As for `O=S(=O)(NCCCN1CCC(Cc2ccccc2)CC1)c1ccc(Oc2ccccc2)cc1` [Example 13, N-(3-(4-benzylpiperidin-1-yl)propyl)-4-phenoxybenzenesulfonamide], in assay [1] (setting [4]), the “Triple reuptake inhibition (Ratio %) SERT” value was found to be 41.46%. Moreover, the IC50 in assay [1] stood at 1.08 µM. In addition, in assay [2], the “Triple reuptake inhibition (Ratio %) NET” value was determined as 11.04% and the IC50 came to 0.112 µM. For the same compound, in assay [3], the “Triple reuptake inhibition (Ratio %) DAT” value is listed as 25.55% and the IC50 was 0.872 µM.
As to `CCCCOc1ccc(S(=O)(=O)N2CCC(CCc3ccccc3)CC2)cc1` [Example 9, 1-((4-butoxyphenyl)sulfonyl)-4-phenethylpiperidin], in assay [1] (setting [4]), the “Triple reuptake inhibition (Ratio %) SERT” value is reported as 101.11%. Moreover, the “Triple reuptake inhibition (Ratio %) NET” value in assay [2] was 96.32%. Further, in assay [3], the “Triple reuptake inhibition (Ratio %) DAT” value was 109.25%.
As to `O=S(=O)(NCCCCN1CCC(Cc2ccccc2)CC1)c1ccc(-c2ccccc2)cc1` [Example 77, N-(4-(4-benzylpiperidin-1-yl)butyl)-[1,1′-biphenyl]-4-sulfonamide], the “Triple reuptake inhibition (Ratio %) SERT” value in assay [1] (setting [4]) came to 40.45%. Moreover, in assay [2], the “Triple reuptake inhibition (Ratio %) NET” value stood at 44.79%. For the same compound, the “Triple reuptake inhibition (Ratio %) DAT” value in assay [3] is listed as 25.71%.
`O=S(=O)(NCCCN1CCC(Cc2ccccc2)CC1)c1ccc2ccccc2n1` [Example 57, N-(3-(4-benzylpiperidin-1-yl)propyl)quinolin-2-sulfonamide]: in assay [1] (setting [4]), the “Triple reuptake inhibition (Ratio %) SERT” value was 53.66%. Also, the values for the IC50 in assay [1], in assay [2] and in assay [3] were 0.345 µM, 1.35 µM and 4.48 µM, respectively. In addition, in assay [2], the “Triple reuptake inhibition (Ratio %) NET” value was determined as 30.54%. In assay [3], the “Triple reuptake inhibition (Ratio %) DAT” value was found to be 13.09%.
Take `O=S(=O)(NCCCN1CCN(CCCc2ccccc2)CC1)c1ccc(-c2ccccc2)cc1` [Example 76, N-(3-(4-(3-phenylpropyl)piperazin-1-yl)propyl)-[1,1′-biphenyl]-4-sulfonamide]: the “Triple reuptake inhibition (Ratio %) SERT” value in assay [1] (setting [4]) was 44.91%. Further, the “Triple reuptake inhibition (Ratio %) NET” value in assay [2] was found to be 44.79%. For the same compound, the “Triple reuptake inhibition (Ratio %) DAT” value in assay [3] was 19.97%.
For `O=S(=O)(NCCCN1CCN(Cc2ccccc2)CC1)c1cccc2ccccc12` [Example 67], in assay [1] (setting [4]), the “Triple reuptake inhibition (Ratio %) SERT” value came out at 49.64%. The “Triple reuptake inhibition (Ratio %) NET” value in assay [2] was found to be 87.27%. Moreover, in assay [3], the “Triple reuptake inhibition (Ratio %) DAT” value is recorded as 83.08%.
Turning to `O=S(=O)(NCCN1CCC(Cc2ccccc2)CC1)c1ccc(-c2ccccc2)cc1` [Example 40, N-(2-(4-benzylpiperidin-1-yl)ethyl)-[1,1′-biphenyl]-4-sulfonamide], in assay [1] (setting [4]), the “Triple reuptake inhibition (Ratio %) SERT” value stood at 33.23%. Further, the IC50 in assay [1] amounted to 3.08 µM; in assay [2], 1.05 µM; in assay [3] it was 3.92 µM. In addition, the “Triple reuptake inhibition (Ratio %) NET” value in assay [2] was 33.45%. Further, the “Triple reuptake inhibition (Ratio %) DAT” value in assay [3] is 41.80%.
In the case of `CCCCOc1ccc(S(=O)(=O)N2CCC(c3c[nH]c4ccccc34)CC2)cc1` [Example 5, 3-(1-((4-butoxyphenyl)sulfonyl)piperidin-4-yl)-1H-indole], in assay [1] (setting [4]), the “Triple reuptake inhibition (Ratio %) SERT” value amounted to 106.55%. Besides, in assay [2], the “Triple reuptake inhibition (Ratio %) NET” value was 94.03%. Further, in assay [3], the “Triple reuptake inhibition (Ratio %) DAT” value came out at 100.55%.
Take `O=S(=O)(NCCN1CCC(Cc2ccccc2)CC1)c1ccc(O)cc1` [Example 1, N-(2-(4-benzylpiperidin-1-yl)ethyl)-4-hydroxybenzenesulfonamide]: the “Triple reuptake inhibition (Ratio %) SERT” value in assay [1] is given as 84.98%. The “Triple reuptake inhibition (Ratio %) NET” value in assay [2] turned out to be 77.88%. Further, the “Triple reuptake inhibition (Ratio %) DAT” value in assay [3] is recorded as 65.88%.
Turning to `O=S(=O)(NCCCN1CCC(c2ccccc2)CC1)c1ccc2ccccc2n1` [Example 65, N-(3-(4-phenylpiperidin-1-yl)propyl)quinolin sulfonamide], the “Triple reuptake inhibition (Ratio %) SERT” value in assay [1] (setting [4]) was 56.73%. Also, the “Triple reuptake inhibition (Ratio %) NET” value in assay [2] was 45.04%. Further, the “Triple reuptake inhibition (Ratio %) DAT” value in assay [3] is on record as 89.88%.
Consider `O=S(=O)(NCCN1CCC(c2ccccc2)CC1)c1cccc2ccccc12` [Example 43, N-(2-(4-phenylpiperidin-1-yl)ethyl)naphthalen-1-sulfonamide], for which the “Triple reuptake inhibition (Ratio %) SERT” value in assay [1] (setting [4]) amounted to 64.15%. Besides, the “Triple reuptake inhibition (Ratio %) NET” value in assay [2] was found to be 34.97%. In assay [3], the “Triple reuptake inhibition (Ratio %) DAT” value was 80.21%.
On the same counts, the results for `O=S(=O)(NCCCN1CCN(c2ccc(Cl)cc2)CC1)c1ccc(-c2ccccc2)cc1` [Example 72, N-(3-(4-(4-chlorophenyl)piperazin-1-yl)propyl)-[1,1′-biphenyl]-4-sulfonamide] are 47.19%, 64.45% and 68.53%.
On the same counts, the results for `O=S(=O)(NCCN1CCC(Cc2ccccc2)CC1)c1ccc2ccccc2n1` [Example 41, N-(2-(4-benzylpiperidin-1-yl)ethyl)quinolin-2-sulfonamide] are 64.15%, 34.97% and 80.21%.

In general, IC50 refers to the concentration at which inhibition is half-maximal.

Source of the values: patent publication US20230212121A1 (DAEGU-GYEONGBUK MEDICAL INNOVATION FOUNDATION, priority 2020, published 2023).
